Source: article PMC7534274 (Journal of Enzyme Inhibition and Medicinal Chemistry, 2020)
Where two headings read alike, the source gives them in different places.

Experiments:
hCA VII = molecular target: T1, hCA VII (Homo sapiens, UniProt P43166); test: stopped-flow CO2 hydrase assay; type: biochemical; settings: read-out: hCA I
T1 construct: gene CA7; recombinant, obtained in-house; cytosolic isoform
Text: stopped-flow CO2 hydrase assay on hCA VII

hCA IX = molecular target: T2, hCA IX (Homo sapiens, UniProt Q16790); test: stopped-flow CO2 hydrase assay; type: biochemical
T2 construct: gene CA9; recombinant, obtained in-house; tumour-associated isoform
Text: stopped-flow CO2 hydrase assay on hCA IX

hCA I = molecular target: T3, hCA I (Homo sapiens, UniProt P00915); test: stopped-flow CO2 hydrase assay; type: biochemical
T3 construct: gene CA1; recombinant, obtained in-house; cytosolic isoform
T3 sequence (P00915 2-261): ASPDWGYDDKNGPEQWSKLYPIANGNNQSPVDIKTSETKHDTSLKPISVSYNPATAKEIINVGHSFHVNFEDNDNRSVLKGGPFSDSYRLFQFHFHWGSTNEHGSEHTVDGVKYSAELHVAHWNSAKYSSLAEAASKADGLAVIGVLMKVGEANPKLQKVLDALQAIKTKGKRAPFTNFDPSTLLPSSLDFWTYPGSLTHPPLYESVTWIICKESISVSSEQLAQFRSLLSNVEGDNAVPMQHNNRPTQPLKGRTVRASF
Text: stopped-flow CO2 hydrase assay on hCA I

hCA XII = molecular target: T4, hCA XII (Homo sapiens, UniProt O43570); test: stopped-flow CO2 hydrase assay; type: biochemical; settings: […] HEPES pH […] Na2SO4, CO2 substrate; […] h preincubation
T4 construct: gene CA12; recombinant, obtained in-house; tumour-associated isoform
T4 sequence (O43570 25-354 limits assumed): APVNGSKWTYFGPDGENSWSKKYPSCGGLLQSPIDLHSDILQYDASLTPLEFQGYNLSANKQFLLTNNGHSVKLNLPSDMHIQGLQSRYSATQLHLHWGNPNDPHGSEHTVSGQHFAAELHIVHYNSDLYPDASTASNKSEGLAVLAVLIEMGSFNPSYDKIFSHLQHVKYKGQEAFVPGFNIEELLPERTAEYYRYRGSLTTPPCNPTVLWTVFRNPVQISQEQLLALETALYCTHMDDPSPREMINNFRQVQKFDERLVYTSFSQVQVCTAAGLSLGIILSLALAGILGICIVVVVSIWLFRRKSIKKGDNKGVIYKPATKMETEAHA
Text: (§1) stopped-flow CO2 hydrase assay on hCA XII

hCA II = molecular target: T5, hCA II (Homo sapiens, UniProt P00918); test: stopped-flow CO2 hydrase assay; type: biochemical; settings: read-out: hCA I
T5 construct: gene CA2; recombinant, obtained in-house; cytosolic isoform
Text: stopped-flow CO2 hydrase assay on hCA II

[1] = stopped-flow CO2 hydrase assay; type: biochemical, Homo sapiens; settings: read-out: hCA I
Text: as §1

[2] = […] HEPES pH […] Na2SO4, CO2 substrate, […] h preincubation

T1 sequence (P43166 whole entry, canonical isoform): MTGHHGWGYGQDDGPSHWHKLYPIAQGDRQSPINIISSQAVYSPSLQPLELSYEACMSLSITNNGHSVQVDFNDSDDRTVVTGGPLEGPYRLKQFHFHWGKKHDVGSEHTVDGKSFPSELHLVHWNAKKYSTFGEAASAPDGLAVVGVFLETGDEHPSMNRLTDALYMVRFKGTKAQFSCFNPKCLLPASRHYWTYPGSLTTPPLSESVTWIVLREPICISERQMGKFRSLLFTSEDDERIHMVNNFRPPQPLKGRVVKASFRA

SMILES	Ki (hCA VII) [nM]	Ki (hCA IX; [2]) [nM]	Ki (hCA I) [nM]	Ki (hCA XII) [nM]	Ki (hCA II) [nM]	Ki (hCA IX) [nM]	Ki [1] [nM]
O=C(Cc1ccccc1Nc1c(Cl)cccc1Cl)NCCOc1ccc2oc(=O)ccc2c1 [compound 1, 6-substituted coumarin containing diclofenac]	> 10000	28.9	> 10000	92.6	> 10000		
CC(C(=O)NCCOc1ccc2oc(=O)ccc2c1)c1ccc(-c2ccccc2)c(F)c1 (centres unmarked) [compound 2, 6-substituted coumarin containing flurbiprofen]	> 10000	23.5	> 10000				
O=C(Cc1ccccc1Nc1c(Cl)cccc1Cl)NCCOc1ccc2ccc(=O)oc2c1 [compound 3, 7-substituted coumarin containing diclofenac]	> 10000	89.7	> 10000	80.9	> 10000		
CC(C(=O)NCCOc1ccc2ccc(=O)oc2c1)c1ccc(-c2ccccc2)c(F)c1 (centres unmarked) [compound 4, 7-substituted coumarin containing flurbiprofen]	> 10000		> 10000		> 10000	159	> 10000
NS(=O)(=O)Nc1cccc(S(=O)(=O)NCCC(=O)N2CCN(C(c3ccccc3)c3ccccc3)CC2)c1 [compound 5, benzhydryl piperazine derivative with beta-alanine spacer (meta benzenesulfonamide)]						1020	
NS(=O)(=O)Nc1ccccc1S(=O)(=O)N1CCCC(C(=O)N2CCN(C(c3ccccc3)c3ccccc3)CC2)C1 (centres unmarked) [compound 7, benzhydryl piperazine derivative with nipecotic acid spacer (ortho)]						> 10000	

Continued, values first:

Ki (hCA VII) [nM]	Ki (hCA IX; [2]) [nM]	Ki (hCA I) [nM]	Ki (hCA XII) [nM]	Ki (hCA II) [nM]	Ki (hCA IX) [nM]	Ki [1] [nM]	SMILES
					296		NS(=O)(=O)Nc1cccc(S(=O)(=O)N2CCCC(C(=O)N3CCN(C(c4ccc(F)cc4)c4ccc(F)cc4)CC3)C2)c1 (centres unmarked) [compound 6, fluorinated benzhydryl piperazine derivative with nipecotic acid spacer (meta benzenesulfonamide)]
					1410		NS(=O)(=O)Nc1ccc(S(=O)(=O)N2CCCC(C(=O)N3CCN(C(c4ccccc4)c4ccccc4)CC3)C2)cc1 (centres unmarked) [compound 8, benzhydryl piperazine derivative with nipecotic acid spacer (para)]
					902		NS(=O)(=O)Nc1ccc(S(=O)(=O)N2CCCC(C(=O)N3CCN(C(c4ccc(F)cc4)c4ccc(F)cc4)CC3)C2)cc1 (centres unmarked) [compound 9, fluorinated benzhydryl analogue of 8 (para)]
